# Data: patent publication US10857119B2, “Composition containing monoacetyldiacylglycerol compound as active ingredient for inhibiting blood cancer or metastasis” (ENZYCHEM LIFESCIENCES CORPORATION, priority 2013, dated 2020)
# How the values were obtained:
# rat IL-4 = assay: IL-4 secretion by ELISA in RBL-2H3 cells; assay type: cell-based; details: 10 μg/Ml EC-18
# Method: The cells were treated with 0.1 μg/Ml to 10 μg/Ml EC-18 for 1 hour and antigen was processed. After the incubation for 18 hours at 37° C., the cell was removed to obtain a supernatant. The quantification of rat IL-4 which was present in the cell culture medium of RBL-2H3 cells was made by carrying out enzyme-linked immunosorbent assay (ELISA) according to the protocol indicated by the manufacturer using commercially purchasable monoclonal antibody (mAb) (BD Biosciences).
# [1] = GLP toxicity test; cited from earlier work
structure (smiles),measurement,setting,value
"CCCCC/C=C\C/C=C\CCCCCCCC(=O)OC(COC(C)=O)COC(=O)CCCCCCCCCCCCCCC (centres unmarked) [EC-18, 1-palmitoyl-2-linoleoyl-3-acetylglycerol]",inhibition at 10 µg/mL,rat IL-4,≥ 60%
same,toxicity,[1],no-toxicity
